One data set deals with NDM-1 (Klebsiella pneumoniae, UniProt C7C422). The data set can be described thus: metallo-β-lactamase inhibition assay (nitrocefin). Type of data set: biochemical. The following applies: 1.5 nM NDM-1, 100 μM nitrocefin, 37° C., pH 7.5. The method, then:
Compounds of the invention were tested in a metallo-β-lactamase inhibition assay to investigate mechanism of action of the compounds. Results are reported as the concentration of test article required to inhibit enzyme activity by 50% (IC50).
Inhibition of metallo-β-lactamase enzyme function was performed at 37° C. in buffer at pH 7.5 (50 mM HEPES, 150 mM NaCl, 0.1 mM ZnSO4, 20 μg/mL PEG4000), containing 1.5 nM NDM-1, 100 μM nitrocefin, and a range of concentrations of compound. Absorbance at 490 nm was measured using a BMG LABTECH FLUOstar Omega microplate reader every minute for 30 minutes. IC50S were determined from the average increase in OD per minute versus the Log 10 concentration of compound using GraphPad Prism.

A short description of data set [1]: Cytotoxicity Assay (CellTiter-Glo). The class given is cell-based. The following applies: human, Hep G2 cells (ATCC HB-8065); 24 h exposure, cell viability; read-out: HepG2 CC50. The method, then:
Cytotoxicity was evaluated in human Hep G2 cells (ATCC HB-8065) seeded at a density of 2×10^5 cells per well and incubated for 24 h at 37° C., 5% CO2. Cells were exposed to a doubling dilution series of test article. After 24 h exposure, the viability of the cells was determined using CellTiter-Glo® (Promega, Wis., USA) according to the manufacturer's instructions. Results are reported as the concentration of test article required to reduce cell viability by 50% (CC50).
A general note: Cellular ATP, detected with luciferase, serves as a proxy for viable cell number.

For data set [2], the system named is E. coli NCTC13476 IMP. The data set can be described thus: Imipenem combination MIC, broth microdilution. Type of data set: cell-based. To be noted: imipenem only (baseline). How it is done: (§1) MICs were determined by exposing bacteria to serial dilutions of antibacterial agents in MHB-II (cation-adjusted Mueller-Hinton Broth pH 7.4) according to Clinical and Laboratory Standards Institute (CLSI) broth microdilution guidelines (Cockerill et al., 2012).
(§2) Combination MIC were performed as described for MIC determinations with the addition of 4 mg/L test article to MHB-II.
(§3) Compounds of the invention were also tested in combination with imipenem.

The test system of data set [3] is K. pneumoniae NCTC13440 VIM-1. The data set can be described thus: Imipenem combination MIC, broth microdilution. The following applies: imipenem only (baseline). Type of data set: cell-based. The method, then: as §1, §2, §3
For orientation: Dilution methods test growth across graded concentrations, often in twofold steps.

Data set [4] deals with E. coli ATCCBAA-2452 NDM-1. The data set can be described thus: Imipenem combination MIC, broth microdilution. To be noted: imipenem only (baseline). Type of data set: cell-based. How it is done:
as §1, §2, §3

The subject of data set [5] is K. pneumoniae ATCC BAA2146 NDM-1. The data set can be described thus: Imipenem combination MIC, broth microdilution. The following applies: imipenem only (baseline). The class given is cell-based. How it is done:
as §1, §2, §3

Data set [6] has as its system A. baumannii SG698 NDM-1. The data set can be described thus: Imipenem combination MIC, broth microdilution. Type of data set: cell-based. The following applies: imipenem only (baseline). The method, then:
as §1, §2, §3

Data set [7] concerns E. coli NCTC13476 IMP. The data set can be described thus: Meropenem combination MIC, broth microdilution. Type of data set: cell-based. To be noted: meropenem only (baseline). The method, then:
as §1, §2

Data set [8] has as its system K. pneumoniae NCTC13440 VIM-1. The data set can be described thus: Meropenem combination MIC, broth microdilution. The class given is cell-based. The following applies: meropenem only (baseline). The method, then: as §1, §2
Data set [9] has as its system K. pneumoniae NCTC13439 VIM-1. The data set can be described thus: Meropenem combination MIC, broth microdilution. Type of data set: cell-based. To be noted: meropenem only (baseline). The method, then:
as §1, §2

Data set [10] has as its system E. coli ATCCBAA-2452 NDM-1. The data set can be described thus: Meropenem combination MIC, broth microdilution. The class given is cell-based. The following applies: meropenem only (baseline). The method, then:
as §1, §2

The test system of data set [11] is K. pneumoniae ATCC BAA2146 NDM-1. The data set can be described thus: Meropenem combination MIC, broth microdilution. The class given is cell-based. The following applies: meropenem only (baseline). How it is done: as §1, §2
The test system of data set [12] is A. baumannii SG698 NDM-1. The data set can be described thus: Meropenem combination MIC, broth microdilution. Type of data set: cell-based. The following applies: meropenem only (baseline). The method, then: as §1, §2

This note sets out measurements from patent US11459296B2, “Antibacterial compounds” (INFEX Therapeutics Limited, priority 2018, dated 2022).

Structures can show the parent of a compound that is named as a salt.

Sequence of NDM-1 (C7C422 whole entry, looked up, species assumed): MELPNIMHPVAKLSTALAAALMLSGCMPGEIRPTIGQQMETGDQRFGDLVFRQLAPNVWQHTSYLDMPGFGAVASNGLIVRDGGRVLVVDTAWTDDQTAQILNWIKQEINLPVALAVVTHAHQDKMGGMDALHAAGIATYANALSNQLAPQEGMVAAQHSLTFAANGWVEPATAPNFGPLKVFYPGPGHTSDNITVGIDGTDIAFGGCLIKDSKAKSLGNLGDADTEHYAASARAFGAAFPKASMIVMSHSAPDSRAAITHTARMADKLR

As a reminder, the IC50 is the concentration at which inhibition is half-maximal. Broadly, the CC50 is the concentration giving 50% cytotoxicity. As to `NS(=O)(=O)n1ccc(-c2ccncc2)c1C(=O)O` [Example 9, 3-(Pyridin-4-yl)-1-sulfamoyl-1H-pyrrole-2-carboxylic acid, sodium salt], half-maximal inhibition against NDM-1 (IC50) was put at 1350 nM. In data set [1], the CC50 at 24 h was more than 256 µg/mL.

`NS(=O)(=O)n1ccc(-c2cccc3ncccc23)c1C(=O)O` [Example 11, 3-(5-Quinolyl)-1-sulfamoyl-pyrrole-2-carboxylic acid, sodium salt] had an IC50 on NDM-1 of 4120 nM. Also, the CC50 at 24 h in [1] is more than 256 µg/mL.

At NDM-1, `NS(=O)(=O)n1ccc(-c2ccc(F)cc2)c1C(=O)O` [Example 18, 3-(4-Fluorophenyl)-1-sulfamoyl-pyrrole-2-carboxylic acid, sodium salt] returned an IC50 of 725 nM. Also, the CC50 at 24 h in data set [1] is more than 256 µg/mL.

On NDM-1, `NS(=O)(=O)n1ccc(-c2cccc(F)c2)c1C(=O)O` [Example 19, 3-(3-Fluorophenyl)-1-sulfamoyl-pyrrole-2-carboxylic acid] came in with an IC50 of 1530 nM. Further, the CC50 at 24 h in data set [1] is more than 256 µg/mL.

Regarding `Nc1ncc(-c2ccn(S(N)(=O)=O)c2C(=O)O)cc1F` [Example 21, 3-(6-Amino-5-fluoro-3-pyridyl)-1-sulfamoyl-pyrrole-2-carboxylic acid], on NDM-1, the IC50 amounted to 3360 nM. Also, the CC50 at 24 h in [1] was more than 256 µg/mL.

Molecule `Nc1cncc(-c2ccn(S(N)(=O)=O)c2C(=O)O)c1` [Example 22, 3-(5-Amino-3-pyridyl)-1-sulfamoyl-pyrrole-2-carboxylic acid] came in with an IC50 against NDM-1 of 2090 nM. Further, the CC50 at 24 h in data set [1] was more than 256 µg/mL.

Molecule `NS(=O)(=O)n1ccc(-c2ccc(NS(=O)(=O)C3CC3)cc2)c1C(=O)O` [Example 23, 3-[4-(Cyclopropylsulfonylamino)phenyl]-1-sulfamoyl-pyrrole-2-carboxylic acid] returned an IC50 against NDM-1 of 548 nM. The CC50 at 24 h in data set [1] was more than 256 µg/mL.

In turn, `NS(=O)(=O)n1ccc(-c2ccc(C3CCNCC3)cc2)c1C(=O)O` [Example 34, 3-[4-(Piperidin-4-yl)phenyl]-1-sulfamoyl-1H-pyrrole-2-carboxylic acid hydrochloride] yielded an IC50 against NDM-1 of 151 nM. The 50% cytotoxic concentration (CC50) at 24 h in data set [1] is more than 256 µg/mL.

At NDM-1, `NCCNS(=O)(=O)c1ccc(-c2ccn(S(N)(=O)=O)c2C(=O)O)cc1` [Example 36, 3-{4-[(2-Aminoethyl)sulfamoyl]phenyl}-1-sulfamoyl-1H-pyrrole-2-carboxylic acid] yielded an IC50 of 1010 nM. In data set [1], the CC50 at 24 h is more than 256 µg/mL.

On to `Cn1c(N)nc2c(-c3ccn(S(N)(=O)=O)c3C(=O)O)cccc21` [Example 46, 3-(2-Amino-1-methyl-benzimidazol-4-yl)-1-sulfamoyl-pyrrole-2-carboxylic acid hydrochloride], for which the IC50 against NDM-1 is 2790 nM. Moreover, in data set [1], the CC50 at 24 h is more than 256 µg/mL.

The molecule `NS(=O)(=O)n1ccc(-c2ccc(=O)[nH]c2)c1C(=O)O` [Example 52, 3-(6-Oxo-1,6-dihydropyridin-3-yl)-1-sulfamoyl-1H-pyrrole-2-carboxylic acid, Sodium Salt] came in with a half-inhibitory concentration (IC50) against NDM-1 of 2690 nM. In addition, in [1], the CC50 at 24 h was more than 256 µg/mL.

For the molecule `CC(=O)N1CCC(c2ccn(S(N)(=O)=O)c2C(=O)O)CC1` [Example 58, 3-(1-Acetylpiperidin-4-yl)-1-sulfamoyl-1H-pyrrole-2-carboxylic acid], the IC50 at NDM-1 came out at 1310 nM. For the same molecule, the CC50 at 24 h in data set [1] is more than 256 µg/mL.

`NCC(=O)N1CCC(c2ccn(S(N)(=O)=O)c2C(=O)O)CC1` [Example 62, 3-[1-(2-Aminoacetyl)-4-piperidyl]-1-sulfamoyl-pyrrole-2-carboxylic acid]: it took 1300 nM to reach half-maximal inhibition on NDM-1 (IC50). Besides, in data set [1], the CC50 at 24 h is more than 256 µg/mL.

On NDM-1, `NS(=O)(=O)n1ccc(OCC2CC2)c1C(=O)O` [Example 72, 3-(Cyclopropylmethoxy)-1-sulfamoyl-pyrrole-2-carboxylic acid, Sodium Salt] returned an IC50 of 3890 nM. Further, in data set [1], the CC50 at 24 h was more than 256 µg/mL.

`NS(=O)(=O)n1ccc(-n2cccc2)c1C(=O)O` [Example 73, 3-Pyrrol-1-yl-1-sulfamoyl-pyrrole-2-carboxylic acid, Sodium Salt]: the IC50 on NDM-1 was 2570 nM. The CC50 at 24 h in data set [1] was more than 256 µg/mL.

On NDM-1, `Cn1cc(-c2ccn(S(N)(=O)=O)c2-c2nnn[nH]2)cn1` [Example 76, 3-(1-Methyl-1H-pyrazol-4-yl)-2-(1H-tetrazol-5-yl)-1H-pyrrole-1-sulfonamide] displayed an IC50 of 1180 nM. Moreover, the CC50 at 24 h in [1] is more than 256 µg/mL.

At NDM-1, `Nc1ccc(-c2ccn(S(N)(=O)=O)c2-c2nnn[nH]2)cn1` [Example 77, 3-(6-Aminopyridin-3-yl)-2-(1H-tetrazol-5-yl)-1H-pyrrole-1-sulfonamide] registered an IC50 of 506 nM. In addition, in data set [1], the CC50 at 24 h was more than 256 µg/mL.

Regarding `C[C@@H](O)[C@H]1C(=O)N2C(C(=O)O)=C(SCCN=CN)C[C@H]12` [Imipenem, imipenem], the “Imipenem MIC II E. coli NCTC13476 IMP” value with E. coli NCTC13476 IMP [2] is recorded as “C (C≤5)”. In addition, the “Imipenem MIC V K. pneumoniae NCTC13440 VIM-1” value in [3] was “D (D≤10)”. For the same molecule, in data set [4], the “Imipenem MIC I E. coli ATCCBAA-2452 NDM-1” value is given as “D (D≤10)”. Also, in data set [5], the “Imipenem MIC III K. pneumoniae ATCC BAA2146 NDM-1” value was “E (E≤40)”. For the same molecule, the “Imipenem MIC IV A. baumannii SG698 NDM-1” value in the data set with A. baumannii SG698 NDM-1 [6] was “F (F≤80)”.

Take `C[C@@H](O)[C@H]1C(=O)N2C(C(=O)O)=C(S[C@@H]3CN[C@H](C(=O)N(C)C)C3)[C@H](C)[C@H]12` [Meropenem, meropenem]: in the data set on E. coli NCTC13476 IMP [7], the “Meropenem MIC (μg/mL) II E. coli NCTC13476 IMP” value turned out to be 4 µg/mL. Besides, the “Meropenem MIC (μg/mL) V K. pneumoniae NCTC13440 VIM-1” value in [8] was determined as 1 µg/mL. Further, in [9], the “Meropenem MIC (μg/mL) VII K. pneumoniae NCTC13439 VIM-1” value came to 0.5 µg/mL. The “Meropenem MIC (μg/mL) I E. coli ATCCBAA-2452 NDM-1” value in data set [10] worked out at 1 µg/mL. Besides, the “Meropenem MIC (μg/mL) III K. pneumoniae ATCC BAA2146 NDM-1” value in data set [11] turned out to be 16 µg/mL. In addition, the “Meropenem MIC (μg/mL) IV A. baumannii SG698 NDM-1” value with A. baumannii SG698 NDM-1 [12] came to 8 µg/mL.
